Article PMC9942557, “Bolaamphiphile Analogues of 12-bis-THA Cl2 Are Potent Antimicrobial Therapeutics with Distinct Mechanisms of Action against Bacterial, Mycobacterial, and Fungal Pathogens” (mSphere, 2022)

Tests used:
[1] = test system: P. aeruginosa NCTC 13437; test: Checkerboard synergy assay; assay type: cell-based, Pseudomonas aeruginosa
[2] = test system: G. vaginalis KC2; test: Anaerobic broth microdilution MIC (BHI, 5% horse serum); assay type: cell-based, Gardnerella vaginalis
[3] = test system: Pseudomonas aeruginosa NCTC 13437; test: Broth microdilution MIC; assay type: cell-based
[4] = test system: VR Enterococcus faecalis NCTC 12201; test: Broth microdilution MIC; assay type: cell-based; details: VR Enterococcus faecalis NCTC 12201
[5] = test system: Ac. pleuropneumoniae 3370; test: Checkerboard synergy assay (BHI, 5% FBS, 0.01% NAD); assay type: cell-based, Actinobacillus pleuropneumoniae
[6] = test system: P. aeruginosa PAO1; test: Checkerboard synergy assay; assay type: cell-based, Pseudomonas aeruginosa
[7] = test system: Ac. pleuropneumoniae 2331; test: Checkerboard synergy assay (BHI, 5% FBS, 0.01% NAD); assay type: cell-based, Actinobacillus pleuropneumoniae
[8] = test system: C. parapsilosis; test: Broth microdilution MIC; assay type: cell-based
[9] = test system: Acinetobacter baumannii ATCC 17978; test: Broth microdilution MIC; assay type: cell-based
[10] = test system: HeLa; test: In vitro toxicity for cell line; assay type: cell-based, human; details: average ± standard error from 3 independent repeats
From the text: (§1) TABLE 2 Toxicity of bolaamphiphiles for two cell lines^a | column: Toxicity (EC50 [μg/ml]) of: / 12-bis-THA Cl2; Toxicity (EC50 [μg/ml]) of: / Dequalinium; Toxicity (EC50 [μg/ml]) of: / Quino-bola; Toxicity (EC50 [μg/ml]) of: / Penta-bola; Toxicity (EC50 [μg/ml]) of: / Hepta-bola; Toxicity (EC50 [μg/ml]) of: / Octa-bola; Toxicity (EC50 [μg/ml]) of: / Octa-C10; Toxicity (EC50 [μg/ml]) of: / Octa-C8; Toxicity (EC50 [μg/ml]) of: / Octa-C6

[11] = test system: HEK293; test: In vitro toxicity for cell line; assay type: cell-based, human; details: HEK293; average ± standard error from 3 independent repeats
From the text: as §1

[12] = test system: C. tropicalis 8760; test: Broth microdilution MIC; assay type: cell-based; details: C. tropicalis 8760
[13] = test system: VR Enterococcus faecium NCTC 12204; test: Broth microdilution MIC; assay type: cell-based; details: VR Enterococcus faecium NCTC 12204
[14] = test system: Klebsiella pneumoniae NCTC 13368; test: Broth microdilution MIC; assay type: cell-based
[15] = test system: P. aeruginosa RP73; test: Checkerboard synergy assay; assay type: cell-based, Pseudomonas aeruginosa
[16] = test system: C. glabrata 8018; test: Broth microdilution MIC; assay type: cell-based; details: C. glabrata 8018
[17] = test system: Pseudomonas aeruginosa PAO1; test: Broth microdilution MIC; assay type: cell-based
[18] = test system: Ac. pleuropneumoniae Shope; test: Checkerboard synergy assay (BHI, 5% FBS, 0.01% NAD); assay type: cell-based, Actinobacillus pleuropneumoniae
[19] = test system: Klebsiella pneumoniae M6; test: Broth microdilution MIC; assay type: cell-based
[20] = test system: C. albicans 3281; test: Broth microdilution MIC; assay type: cell-based, Candida albicans; details: C. albicans 3281
[21] = test system: C. albicans 3179; test: Broth microdilution MIC; assay type: cell-based, Candida albicans; details: C. albicans 3179
[22] = test system: Acinetobacter baumannii AYE; test: Broth microdilution MIC; assay type: cell-based; details: Acinetobacter baumannii AYE
[23] = test system: C. parapsilosis 3209; test: Broth microdilution MIC; assay type: cell-based
[24] = test system: VS Enterococcus faecalis NCTC 775; test: Broth microdilution MIC; assay type: cell-based
[25] = test system: Escherichia coli NCTC 12923; test: Broth microdilution MIC; assay type: cell-based
[26] = test system: G. vaginalis KC1; test: Anaerobic broth microdilution MIC (BHI, 5% horse serum); assay type: cell-based, Gardnerella vaginalis
[27] = test system: Ac. pleuropneumoniae 2356; test: Checkerboard synergy assay (BHI, 5% FBS, 0.01% NAD); assay type: cell-based, Actinobacillus pleuropneumoniae
[28] = test system: G. vaginalis KC3; test: Anaerobic broth microdilution MIC (BHI, 5% horse serum); assay type: cell-based, Gardnerella vaginalis
[29] = test system: EMRSA-15; assay type: in vivo, Galleria mellonella
[30] = test system: C. krusei 3876; test: Broth microdilution MIC; assay type: cell-based
[31] = test system: Prevotella bivia NCTC 11156; test: Anaerobic broth microdilution MIC (BHI, 5% horse serum); assay type: cell-based
[32] = test system: G. vaginalis NCTC 10287; test: as above; assay type: cell-based, Gardnerella vaginalis
[33] = test system: EMR Staphylococcus aureus 15 NCTC 13616; test: Broth microdilution MIC; assay type: cell-based; details: EMR Staphylococcus aureus 15 NCTC 13616
[34] = test system: EMR Staphylococcus aureus 16 NCTC 13277; test: Broth microdilution MIC; assay type: cell-based; details: EMR Staphylococcus aureus 16 NCTC 13277
[35] = test system: A. baumannii ATCC 17978; test: G. mellonella burn wound infection model; assay type: in vivo, Galleria mellonella; details: alone; for larvae rescued: 96 h
From the text: In addition to the intrahemocoelic infection/therapy models described above, a recently described G. mellonella burn wound model was adopted ([37]). The burn was created using the flat head of a nail, which was heated in a blue Bunsen burner flame until red hot, cooled for 15 s, and superficially applied for 2 s to generate a 2-mm^2 burn. Larvae were then infected with a single colony of A. baumannii ATCC 17978 applied directly to the burn site, or sterile phosphate-buffered saline was applied as a control. Treatment was applied topically 1 h after infection in a volume of 5 μL. Survival was monitored over 96 h.

[36] = test system: C. auris temp probe; test: Broth microdilution MIC; assay type: cell-based, Candida auris; details: C. auris temp probe

In the case of `Nc1c2c([n+](CCCCCCCCCC[n+]3c4c(c(N)c5ccccc53)CCCCCC4)c3ccccc13)CCCCCC2` [Octa-C10], the “MIC alone Bolalipid” value [1] is reported as 32 µg/mL, the MIC [2] is reported as 2 µg/mL and the MIC [3] is reported as over 32 µg/mL. The MIC [4] was 1 µg/mL, the “MIC alone Bolalipid” value ([5]; Octa-C10/enrofloxacin) was 4 to 8 µg/mL and the “MIC alone Bolalipid” value ([5]; Octa-C10/streptomycin) was 4 to 8 µg/mL. The “MIC alone Bolalipid” value [6] was 64 µg/mL, the “MIC alone Bolalipid” value ([7]; Octa-C10/enrofloxacin) was 4 to 8 µg/mL and the “MIC alone Bolalipid” value ([7]; Octa-C10/streptomycin) was 4 to 8 µg/mL. For the same molecule, the MIC [8] was 4 µg/mL, the MIC [9] was 8 µg/mL and the “Toxicity (EC50)” value [10] was 10.7 ± 0.3 µg/mL. The “Toxicity (EC50)” value [11] was 7.0 ± 0.5 µg/mL, the MIC [12] was 0.25 µg/mL and the MIC [13] was 0.25 µg/mL. For the same molecule, the MIC [14] was 32 µg/mL, the “MIC alone Bolalipid” value [15] was 8 µg/mL and the MIC [16] was 0.5 µg/mL. The MIC [17] was over 32 µg/mL, the “MIC alone Bolalipid” value ([18]; Octa-C10/enrofloxacin) was 1 µg/mL and the “MIC alone Bolalipid” value ([18]; Octa-C10/streptomycin) was 1 µg/mL. The MIC [19] was 16 µg/mL, the MIC [20] was 1 µg/mL and the MIC [21] was 0.5 µg/mL. It also gave an MIC [22] of 16 µg/mL, an MIC [23] of 2 µg/mL and an MIC [24] of 2 µg/mL. For the same molecule, the MIC [25] was 2 µg/mL, the MIC [26] was 0.5 to 1 µg/mL and the “MIC alone Bolalipid” value ([27]; Octa-C10/enrofloxacin) was 4 to 8 µg/mL. For the same molecule, the “MIC alone Bolalipid” value ([27]; Octa-C10/streptomycin) was 4 to 8 µg/mL, the MIC [28] was 0.5 µg/mL and the protection ([29]; in vivo) was “none of them providing significant protection”. The infected larvae rescued ([29]; lowest dose, 0.1 mg/kg) was “approximately a third”, the MIC [30] was 2 µg/mL and the MIC [31] was 0.125 µg/mL. It also gave an MIC [32] of 0.5 to 1 µg/mL, an MIC [33] of 0.25 µg/mL and an MIC [34] of 0.25 µg/mL. The larvae rescued ([35]; 5 mg/kg topical) was 48%, the larvae rescued ([35]; 10 mg/kg topical) was 60% and the protection ([35]; lower doses (2.5 and 1.25 mg/kg)) was “ineffective”. It also gave an MIC [36] of 4 µg/mL.
